Assay [1] deals with T1, PenA1 (Burkholderia multivorans, UniProt A0A0H3KN52).
T1 construct: gene ampC; purified class A beta-lactamase
The experiment in a line: steady-state inhibition kinetics. The class given is biochemical. The note with it: read-out: PenA1; covalent acyl-enzyme; slow substrate; partition ratio method at 15 min; 10 mM PBS pH 7.4, ~25 °C (stated for hydrolysis curves). The text has this:
steady-state inhibition kinetics on PenA1

Assay [2] concerns the target T2, AmpC1 (Burkholderia multivorans, UniProt A0A0H3KQ39).
T2 construct: gene ampC; purified class C beta-lactamase
The experiment in a line: steady-state inhibition kinetics. The note with it: covalent acyl-enzyme; not hydrolysed; 10 mM PBS pH 7.4, ~25 °C (stated for hydrolysis curves). The assay is classed as biochemical. An excerpt:
steady-state inhibition kinetics on AmpC1

T2 sequence (A0A0H3KQ39 entry or part of it): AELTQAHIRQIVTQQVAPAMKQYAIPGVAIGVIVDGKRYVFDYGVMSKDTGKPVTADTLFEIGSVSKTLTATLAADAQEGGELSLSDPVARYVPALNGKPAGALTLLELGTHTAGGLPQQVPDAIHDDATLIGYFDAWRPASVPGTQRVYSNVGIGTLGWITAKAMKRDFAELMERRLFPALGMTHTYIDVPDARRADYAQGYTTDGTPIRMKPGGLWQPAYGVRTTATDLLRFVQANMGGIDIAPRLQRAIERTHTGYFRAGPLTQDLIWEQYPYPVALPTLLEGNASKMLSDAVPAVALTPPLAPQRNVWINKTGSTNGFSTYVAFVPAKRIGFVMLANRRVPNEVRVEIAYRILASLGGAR
T1 sequence (A0A0H3KN52 entry or part of it): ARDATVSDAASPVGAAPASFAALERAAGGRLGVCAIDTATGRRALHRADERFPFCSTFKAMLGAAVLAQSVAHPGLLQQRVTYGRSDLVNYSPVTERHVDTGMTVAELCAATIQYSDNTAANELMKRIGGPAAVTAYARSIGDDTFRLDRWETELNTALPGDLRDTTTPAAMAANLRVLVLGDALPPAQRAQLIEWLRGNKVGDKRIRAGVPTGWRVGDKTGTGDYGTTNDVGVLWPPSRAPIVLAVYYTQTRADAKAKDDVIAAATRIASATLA

In the case of `C[C@@H](O)[C@H]1C(=O)N2C(C(=O)O)=C(SC3CN(C4=NCCS4)C3)[C@H](C)[C@H]12` [tebipenem], the figures for the Ki in assay [1] and in assay [2] were 4.7 ± 0.5 µM and 22 ± 2 µM, respectively.

The values above are taken from article PMC9137479, “The Class A β-Lactamase Produced by Burkholderia Species Compromises the Potency of Tebipenem against a Panel of Isolates from the United States” (Antibiotics, 2022).
